Source: patent publication US7807669B2, “Biaromatic compounds which activate PPARγ type receptors and cosmetic/pharmaceutical compositions comprised thereof” (Galderma Research & Development, priority 2002, dated 2010)
pKd: −log10 of the molar value.

Key:
Type in all cases: cell-based
PPARγ = biological target: T1, PPARγ (Homo sapiens, UniProt P37231); assay: Crossed-curve PPAR transactivation assay (PPARγ); details: HeLN cells stably transfected with ERE-βGlob-Luc-SV-Neo and Gal-hPPARγ; crossed curves against reference agonist, Schild regression; n.a. means not active; read-out: PPAR gamma Kd app
T1 construct: The reporter is ERE-βGlob-Luc-SV-Neo
T1 sequence (P37231 238-505 limits assumed): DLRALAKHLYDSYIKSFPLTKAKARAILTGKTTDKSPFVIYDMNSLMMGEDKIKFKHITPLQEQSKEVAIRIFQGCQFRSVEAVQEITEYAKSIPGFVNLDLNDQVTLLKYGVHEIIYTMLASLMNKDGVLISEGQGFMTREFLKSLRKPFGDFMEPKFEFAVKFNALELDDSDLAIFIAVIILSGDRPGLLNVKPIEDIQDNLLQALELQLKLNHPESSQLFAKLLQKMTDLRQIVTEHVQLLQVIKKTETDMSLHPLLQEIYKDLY
Description: (§1) Activation of the receptors by an agonist (activator) in HeLN cells leads to the expression of a reporter gene, luciferase, which, in the presence of a substrate, generates light. The modulation of the receptors is measured by quantifying the luminescence produced after incubation of the cells in the presence of a reference agonist. The ligands will displace the agonist from its site. The measurement of the activity is performed by quantifying the light produced. This measurement makes it possible to determine the modulatory activity of the compounds according to the invention by determining the constant that is the affinity of the molecule for the receptor. Since this value can fluctuate depending on the basal activity and the expression of the receptor, it is referred to as Kd apparent (KdApp in nM).
(§2) To determine this constant, “crossed curves” for the test product, against a reference agonist, are prepared using a 96-well plate: 10 concentrations of the test product plus a concentration 0 are arranged in a line, and 7 concentrations of the agonist plus a concentration 0 are arranged in a column. This is 88 measurement points for 1 product and 1 receptor. The remaining 8 wells are used for repeatability controls.
(§3) Measurements are also taken for total agonist controls with the same products.
(§4) The HeLN cell lines used are stable transfectants containing the plasmids ERE-βGlob-Luc-SV-Neo (reporter gene) and PPAR (α, δ, γ) Gal-hPPAR. These cells are seeded in 96-well plates at a rate of 10 000 cells per well in 100 μl of DMEM medium without phenol red and supplemented with 10% of defatted calf serum. The plates are then incubated for 16 hours at 37° C. and 7% CO2.
(§5) The various dilutions of the test products and of the reference ligand are added at a rate of 5 μl per well. The plates are then incubated for 18 hours at 37° C. and 7% CO2. The culture medium is removed by turning over and 100 μl of a 1:1 PBS/luciferin mixture are added to each well. After 5 minutes, the plates are read using the luminescence reader.

PPARδ = biological target: T2, PPARδ (Homo sapiens, UniProt Q03181); assay: Crossed-curve PPAR transactivation assay (PPARδ); details: HeLN cells stably transfected with ERE-βGlob-Luc-SV-Neo and Gal-hPPARδ; crossed curves against reference agonist, Schild regression; n.a. means not active; read-out: PPAR delta Kd app
T2 construct: The reporter is ERE-βGlob-Luc-SV-Neo
T2 sequence (Q03181 211-441 limits assumed): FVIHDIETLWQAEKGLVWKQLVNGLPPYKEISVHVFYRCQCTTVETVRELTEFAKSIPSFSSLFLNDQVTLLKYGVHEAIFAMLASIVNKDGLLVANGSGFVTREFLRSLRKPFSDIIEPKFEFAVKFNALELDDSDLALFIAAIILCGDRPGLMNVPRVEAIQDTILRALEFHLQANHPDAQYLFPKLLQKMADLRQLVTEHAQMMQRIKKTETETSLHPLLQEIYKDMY
Description: as §1
To determine this constant, “crossed curves” for the test product, against a reference agonist, are prepared using a 96-well plate: 10 concentrations of the test product plus a concentration 0 are arranged in a line, and 7 concentrations of the agonist plus a concentration 0 are arranged in a column. This is 88 measurement points for 1 product and 1 receptor. […]
The various dilutions of the test products and of the reference ligand are added at a rate of 5 μl per well. […] After 5 minutes, the plates are read using the luminescence reader.

PPARα = biological target: T3, PPARα (Homo sapiens, UniProt Q07869); assay: Crossed-curve PPAR transactivation assay (PPARα); details: HeLN cells stably transfected with ERE-βGlob-Luc-SV-Neo and Gal-hPPARα; crossed curves against reference agonist, Schild regression; n.a. means not active; read-out: PPAR alpha Kd app
T3 construct: The reporter is ERE-βGlob-Luc-SV-Neo
T3 sequence (Q07869 239-468 limits assumed): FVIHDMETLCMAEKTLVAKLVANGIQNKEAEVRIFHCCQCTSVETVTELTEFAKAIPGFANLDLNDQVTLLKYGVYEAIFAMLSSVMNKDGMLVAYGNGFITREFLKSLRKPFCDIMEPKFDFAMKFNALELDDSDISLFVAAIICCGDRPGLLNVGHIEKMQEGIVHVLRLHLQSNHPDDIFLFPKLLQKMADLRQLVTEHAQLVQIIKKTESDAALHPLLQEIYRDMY
Description: as §1, §2, §3, §4, §5

Compound	pKd (PPARγ)	pKd (PPARδ)	pKd (PPARα)
CCCCCCCNC(=O)N(C)c1cccc(-c2ccc(C[C@H](Nc3ccccc3C(=O)c3ccccc3)c3nnc(CCC)o3)cc2)c1 [Example 3, (S)-1-{4′-[2-(2-benzoylphenylamino)-2-(5-propyl[1,3,4]oxadiazol-2-yl)ethyl]biphenyl-3-yl}-3-heptyl-1-methylurea]	7.52		
CN(C(=O)Nc1ccc2ccccc2c1)c1cccc(-c2ccc(C[C@H](Nc3ccccc3C(=O)c3ccccc3)C(=O)O)cc2)c1 [Example 6, (S)-2-(2-benzoylphenylamino)-3-[3′-(1-methyl-3-naphthalen-2-ylureido)biphenyl-4-yl]propionic acid]	8.40		
CCCCCCCNC(=O)N(C)c1cccc(-c2ccc(C[C@H](Nc3ccccc3C(=O)c3ccccc3)C(=O)NCCCCC)cc2)c1 [Example 8, (S)-2-(2-benzoylphenylamino)-3-[3′-(3-heptyl-1-methylureido)biphenyl-4-yl]-N-pentylpropionamide]	7.52	6.30	5.70
CCCCCCCNC(=O)N(C)c1cccc(-c2ccc(C[C@H](Nc3ccccc3C(=O)c3ccccc3)C(=O)N3CCC(C)CC3)cc2)c1 [Example 9, (S)-1-{4′-[2-(2-benzoylphenylamino)-3-(4-methylpiperid-1-yl)-3-oxopropyl]biphenyl-3-yl}-3-heptyl-1-methylurea]	7.52		5.70
CCCCCCCNC(=O)N(C)c1cccc(-c2ccc(C[C@H](Nc3ccccc3C(=O)c3ccccc3)C(=O)NCCNC(C)=O)cc2)c1 [Example 10, (S)—N-(2-acetylaminoethyl)-2-(2-benzoylphenylamino)-3-[3′-(3-heptyl-1-methylureido)biphenyl-4-yl]propionamide]	7.22		5.70
CCCCCCCNC(=O)N(C)c1cccc(-c2ccc(C[C@H](Nc3ccccc3C(=O)c3ccccc3)C(=O)N(Cc3ccccc3)Cc3ccccc3)cc2)c1 [Example 13, (S)-2-(2-benzoylphenylamino)-N,N-dibenzyl-3-[3′-(3-heptyl-1-methylureido)biphenyl-4-yl]propionamide]	8.10		
CCCCCCCNC(=O)N(C)c1cccc(-c2ccc(C[C@H](Nc3ccccc3C(=O)c3ccccc3)C(=O)N3CCN(C)CC3)cc2)c1 [Example 16, (S)-1-{4′-[2-(2-benzoylphenylamino)-3-(4-methylpiperazin-1-yl)-3-oxopropyl]biphenyl-3-yl}-3-heptyl-1-methylurea]	7.52		
CCCCCCCNC(=O)N(C)c1cccc(-c2ccc(C[C@H](Nc3ccccc3C(=O)c3ccccc3)C(=O)NCc3ccccn3)cc2)c1 [Example 18, (S)-2-(2-benzoylphenylamino)-3-[3′-(3-heptyl-1-methylureido)biphenyl-4-yl]-N-pyridin-2-ylmethylpropionamide]	7.22		
CCCCCCCNC(=O)N(C)c1cccc(-c2ccc(C[C@H](Nc3ccccc3C(=O)c3ccccc3)C(=O)N(C)Cc3ccccc3)cc2)c1 [Example 20, (S)-2-(2-benzoylphenylamino)-N-benzyl-3-[3′-(3-heptyl-1-methylureido)biphenyl-4-yl]-N-methylpropionamide]	7.52		
CCCCCCCNC(=O)N(C)c1cccc(-c2ccc(C[C@H](Nc3ccccc3C(=O)c3ccccc3)C(=O)NCCN(C)C)cc2)c1 [Example 26, (S)-2-(2-benzoylphenylamino)-N-(2-dimethylaminoethyl)-3-[3′-(3-heptyl-1-methylureido)biphenyl-4-yl]propionamide]	7.22		
CCCCCCCNC(=O)N(C)c1cccc(-c2ccc(C[C@H](Nc3ccccc3C(=O)c3ccccc3)C(=O)N(C)CCc3ccccc3)cc2)c1 [Example 27, (S)-2-(2-benzoylphenylamino)-3-[3′-(3-heptyl-1-methylureido)biphenyl-4-yl]-N-methyl-N-phenethylpropionamide]	7.82		5.40
CN(Cc1cccc(-c2ccc(C[C@H](Nc3ccccc3C(=O)c3ccccc3)C(=O)O)cc2)c1)C(=O)c1ccccc1 [Example 29, (S)-3-{3′-[(benzoylmethylamino)methyl]biphenyl-4-yl}-2-(2-benzoylphenylamino)propionic acid]	6.30		5.70
CC(=CC(=O)c1ccccc1)N[C@@H](Cc1ccc(-c2cccc(CN(C)C(=O)c3ccccc3)c2)cc1)C(=O)O [Example 31, (S)-3-{3′-[(benzoylmethylamino)methyl]biphenyl-4-yl}-2-(1-methyl-3-oxo-3-phenylpropenylamino)propionic acid]	7.82		
CCCCCCCNC(=O)N(C)c1cccc(-c2ccc(C[C@H](Nc3ccccc3C(=O)c3ccccc3)C(=O)OCCCC)cc2)c1 [Example 39, butyl (S)-2-(2-benzoylphenylamino)-3-[3′-(3-heptyl-1-methylureido)biphenyl-4-yl]propionate]	7.52		
